A word on the half-life: it is how long it takes for the measured level to halve. Usually fraction remaining stands for what is left of the initial amount, in per cent. Broadly, the clearance is a measure of how efficiently the substance is removed, as volume per time.

The source of these data is paper PMC6389962 (Nature Communications, 2019).

Series [1] can be described thus: in vitro. Conditions: mouse, plasma. A digest of the protocol:
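Oligomer at 5 µM final in mouse plasma/PBS pH 7.4 (1:1) at 37 °C, with a plasma-free control defining t = 0. Aliquots quenched in cold acetonitrile at 20 and 60 min; remaining oligomer quantified by LC-MS extracted-ion peak area.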

Series [2] deals with normal mice (C57BL/6J). Nature of the series: Blood glucose study in normal fed mice. It counts as in vivo, mouse. The arrangement: key to In vivo activity (indicator): + active; +++: + + + more active. In a few lines:
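Fed male C57BL/6J mice (8 weeks, 20–25 g, n = 3 per group) received a single i.v. dose of 5 µg per mouse (50 nmol kg^−1) in PBS at 10 am. Blood glucose measured before dosing and at 30 min, 1, 2, 4 and 6 h after.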

The test system of series [3] is fasted normal mice (C57BL/6J). Nature of the series: Intraperitoneal glucose tolerance test (IPGTT) in fasted normal mice. It counts as in vivo, mouse. To be noted: for AUC: IPGTT 5 min (Fig 4a), blood glucose AUC 0-120 min. The method, then:
In a second study, an IPGTT was performed 30 min after i.v. injections of 1, 14 and the vehicle (Fig. 4b). […] A further IPGTT study was done with a glucose challenge after 2 h of the dosing to investigate the prolonged activity of hybrids 14, 22 and 23 (Fig. 4c).
Fig. 4 IPGTT studies in mice. a–d Intraperitoneal glucose tolerance test (IPGTT) at different time after dosing in fasted normal mice (C57BL/6J, male, 20–25 g). Dosage: 200 μg kg^−1 (50 nmol kg^−1) i.v. Formulation: 20 μg mL^−1 in PBS 1×. IPGTT: glucose 2 g kg^−1 i.p. at T0. a IPGTT after 5 min (n = 4). b IPGTT after 30 min (n = 6). c IPGTT after 2 h (n = 6). d IPGTT after 4 h (n = 3). Area under the curve (AUC) of the corresponding IPGTT curve. Data are mean ± SEM. […] Source data are provided as a Source Data file
After the acclimation period (at least 5 days), mice (male C57BL/6J mice (Charles River laboratories) 6 weeks old, 20–25 g) were randomized into groups according to their body weight. The mice were fasted for 6 h prior being acutely treated via i.v. route (5 µg per mouse i.v. (200 μg kg^−1, 50 nmol kg^−1)) formulated at 20 µg mL^−1 in PBS 1×. The IPGTTs were performed (glucose 2 g kg^−1 i.p.) 5 min, 30 min, 2 h or 4 h after dosing and blood glucose was measured at different time points after the glucose challenge.

Series [4] can be described thus: Pharmacokinetic evaluation in mice, i.v. (first study, peer review file Table 3). Conditions: in vivo, normal C57BL/6J mice, male, n = 3, 25 μg/mouse (~250 nmol/kg) intravenous, first PK study. The method, then:
Our current understanding is that […]
ways (See Figure below for reviewing only).
(1 picture or pasted object on this page, not shown here)
PK mice Table 3 | Pharmacokinetic evaluation in mice by i.v.
*** (m L/m i n/ k g) (mL/kg) (m in)
Formulation: 2 mg/mL in PB S 1X.
An additional table has been prepared (Table 3) and the following text was added:
“A pharmacokinetic study was also conducted in mice to access the pharmacologic […]
The manuscript by Fremaux et al. describes the synthesis and biological evaluation of α-pept ide- […]
In the design of those analogues, four […]
peptide chemistry and medicinal chemistry.
The authors should, however, revise the manuscript for typographic and gramatical errors. As an example, the following sentence should be revised:
The manuscript was revised for typographic and grammatical errors and the sentence above was […]

The target of series [5] is T1, mouse GLP-1 receptor (Mus musculus, UniProt O35659).
T1 sequence (O35659 22-463): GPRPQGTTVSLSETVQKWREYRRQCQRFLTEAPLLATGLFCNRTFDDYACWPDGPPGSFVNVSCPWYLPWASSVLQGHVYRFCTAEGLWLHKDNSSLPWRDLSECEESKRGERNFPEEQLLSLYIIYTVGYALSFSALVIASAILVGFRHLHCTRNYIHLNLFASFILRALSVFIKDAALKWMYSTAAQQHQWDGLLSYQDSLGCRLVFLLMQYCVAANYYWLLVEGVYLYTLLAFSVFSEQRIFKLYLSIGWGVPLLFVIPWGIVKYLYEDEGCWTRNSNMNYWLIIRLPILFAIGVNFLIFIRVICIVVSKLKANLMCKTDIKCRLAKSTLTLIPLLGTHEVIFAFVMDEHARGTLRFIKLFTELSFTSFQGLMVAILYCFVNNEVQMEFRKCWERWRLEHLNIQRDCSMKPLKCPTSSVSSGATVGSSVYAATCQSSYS

Where [6] appears, read: fasted C57BL/6J mice, 200 μg kg−1 (50 nmol kg−1) i.v., glucose 2 g kg−1 i.p., n = 6.

Structures are written as SMILES.

For `CC[C@H](C)[C@H](NC(=O)[C@H](Cc1ccccc1)NC(=O)[C@H](CCC(=O)O)NC(=O)[C@H](CCCCN)NC(=O)[C@H](C)NC(=O)[C@H](C)NC(=O)[C@H](CCC(N)=O)NC(=O)CNC(=O)[C@H](CCC(=O)O)NC(=O)[C@H](CC(C)C)NC(=O)[C@H](Cc1ccc(O)cc1)NC(=O)[C@H](CO)NC(=O)[C@H](CO)NC(=O)[C@@H](NC(=O)[C@H](CC(=O)O)NC(=O)[C@H](CO)NC(=O)[C@@H](NC(=O)[C@H](Cc1ccccc1)NC(=O)[C@@H](NC(=O)CNC(=O)[C@H](CCC(=O)O)NC(=O)CNC(=O)[C@@H](N)Cc1c[nH]cn1)[C@@H](C)O)[C@@H](C)O)C(C)C)C(=O)N[C@@H](C)C(=O)N[C@@H](Cc1c[nH]c2ccccc12)C(=O)N[C@@H](CC(C)C)C(=O)N[C@H](C(=O)N[C@@H](CCCCN)C(=O)NCC(=O)N[C@@H](CCCNC(=N)N)C(=O)NCC(N)=O)C(C)C` [compound 1, GLP-1-G^2 (GG2)], the results for the half-life in series [1] (pH 7.4) and in series [4] were 16 min and 7 min, respectively. In addition, in series [1] (pH 7.4, % remaining analogue), the amount remaining at 20 min is 34.8%. Also, the amount remaining at 1 h in series [1] (pH 7.4, % remaining analogue) came out at 23.9%. In addition, the “In vivo activity (indicator)” value in series [2] (mice, 50 nmol kg−1 i.v.) is recorded as “+”. In addition, the “effect on blood glucose concentration” value in series [2] (normal fed C57BL/6J mice, n = 3, 5 μg per mouse (50 nmol kg−1) i.v., monitored 6 h) was “decreased of blood glucose concentration after 30 min”. Also, the AUC in series [3] (mean of n = 4, 2018-03-08) worked out at 21223 mg·min/dL; in series [3] (single animal, 1st of group), 20535 mg·min/dL; in series [3] (single animal, 2nd of group), 25208 mg·min/dL; in series [3] (single animal, 3rd of group), 19110 mg·min/dL; in series [3] (single animal, 4th of group) it was 20040 mg·min/dL. In series [3] (fasted C57BL/6J mice, 200 μg kg−1 (50 nmol kg−1) i.v., glucose 2 g kg−1 i.p., n = 4), the “activity in IPGTT 5 min after dosing” value is reported as “both analogues were active”. Also, in series [3] (setting [6]), the “activity in IPGTT 30 min after dosing” value was “already inactive”. Further, in series [3] (setting [6]), the “activity in IPGTT 2 h after dosing” value is “IPGTT curve similar to the vehicle”. Besides, in series [4] (2 mg/mL in PBS 1X), the clearance worked out at 448 mL/min/kg. The Vd in series [4] (read-out: Vz) is 4.48 L/kg. In addition, in series [5], the “LogEC50 (best-fit value)” value was -9.62. In addition, the “Potency (%), percentage of potency compare to GLP-1-G^2” value in series [5] (cAMP production, from EC50) is 100%.
